Among the data in PubChem BioAssay (NCI) are TGI and GI50 values, retold here.

Among the test systems are 786-0 renal; DU-145 prostate; HOP-62 NSCLC; HOP-92 NSCLC; MCF7 breast; MOLT-4 leukemia; NCI-H522 lung; TK-10 renal; UACC-62 melanoma; HCC-2998 colon.
What all share (experiment): DTP human tumour cell line panel, 48 h

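1) Cells in 96-well plates. 2) Compound, 48 h, 5 concentrations. 3) Linear interpolation between surrounding doses. 4) Unreached endpoint = highest concentration. GI50 is the concentration that inhibits growth by half. TGI: total growth inhibition.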

By TGI is commonly meant the concentration giving total growth inhibition. Consider `Nc1nc(SCC(=O)O)[nH]c(=O)c1N`, for which the TGI in the assay with 786-0 renal, with DU-145 prostate, in the assay on HOP-62 NSCLC, in the assay on HOP-92 NSCLC, in the assay with MCF7 breast and with MOLT-4 leukemia was more than 100 µM each time. Also, the total growth inhibition concentration (TGI) with NCI-H522 lung, with TK-10 renal and with UACC-62 melanoma was more than 100 µM throughout.
One may read the GI50 as the concentration that inhibits growth by half. In the case of `Cc1ccc2c(/C=C/C(=O)c3cc(CN4CCOCC4)c(O)c4nc(C)ccc34)cc(CN3CCOCC3)c(O)c2n1`, the GI50 is 1.4 µM in the assay with 786-0 renal; 1.1 µM in the assay with HCC-2998 colon; 0.739 µM with HOP-62 NSCLC; 1.11 µM in the assay on HOP-92 NSCLC; 0.356 µM in the assay on MCF7 breast; 0.386 µM with MOLT-4 leukemia. The GI50 in the assay on NCI-H522 lung was 0.332 µM; with TK-10 renal it was 1.13 µM; in the assay with UACC-62 melanoma, 0.432 µM. Further, the TGI in the assay with 786-0 renal came to 5.45 µM; in the assay with HCC-2998 colon it was 2.76 µM; in the assay with HOP-62 NSCLC, 11.8 µM; in the assay on HOP-92 NSCLC, 9.78 µM; in the assay on MCF7 breast, 2.74 µM; in the assay with MOLT-4 leukemia, 2.66 µM. Also, the values for the TGI in the assay on NCI-H522 lung, with TK-10 renal and in the assay with UACC-62 melanoma were 2 µM, 3.77 µM and 7.48 µM, respectively.
With `CS(=O)(=O)c1ccc(Oc2nccc(-c3c(-c4ccc(F)cc4)ncn3C3CCNCC3)n2)cc1`, the GI50 with 786-0 renal is more than 25 µM; in the assay with DU-145 prostate, more than 25 µM; in the assay with HCC-2998 colon it was more than 25 µM; in the assay with HOP-62 NSCLC, more than 25 µM; in the assay on MCF7 breast, more than 25 µM; with MOLT-4 leukemia it was more than 12.9 µM. The GI50 in the assay with NCI-H522 lung, with TK-10 renal and in the assay on UACC-62 melanoma was more than 25 µM each time. Besides, the TGI was more than 25 µM in the assay on 786-0 renal; more than 25 µM in the assay with DU-145 prostate; more than 25 µM with HCC-2998 colon; more than 25 µM with HOP-62 NSCLC; more than 25 µM in the assay on MCF7 breast; more than 18.9 µM in the assay with MOLT-4 leukemia. Moreover, the TGI in the assay with NCI-H522 lung, in the assay on TK-10 renal and in the assay on UACC-62 melanoma was more than 25 µM each time.
Turning to `O=P(Oc1ccccc1)(Oc1ccccc1)C(O)c1ccccc1` (stereo not drawn), the GI50 in the assay with 786-0 renal is more than 100 µM; with DU-145 prostate it was more than 100 µM; in the assay on HCC-2998 colon, more than 100 µM; with HOP-62 NSCLC, 39.3 µM; in the assay with MCF7 breast, more than 100 µM; in the assay on MOLT-4 leukemia, more than 100 µM. Also, the GI50 in the assay on NCI-H522 lung was 25.4 µM; with TK-10 renal it was more than 100 µM; with UACC-62 melanoma it was 44.8 µM. Further, the total growth inhibition concentration (TGI) with 786-0 renal, in the assay on DU-145 prostate, in the assay on HCC-2998 colon, in the assay with HOP-62 NSCLC, with MCF7 breast and in the assay on MOLT-4 leukemia was more than 100 µM each time. For the same compound, the concentration for total growth inhibition (TGI) with NCI-H522 lung, in the assay with TK-10 renal and with UACC-62 melanoma was more than 100 µM each time.
On to `COC(=O)C/C(C)=C/[C@@H](O)[C@H]1O[C@@H]2CC/C(Cl)=C/C/C=C(/C)[C@H](OC(C)=O)CC(=O)O[C@@H]1C2`, for which the GI50 is 0.708 µM in the assay on 786-0 renal; 1.29 µM with DU-145 prostate; 2.5 µM with HOP-62 NSCLC; 4.86 µM in the assay with MCF7 breast; 6.15 µM in the assay on MOLT-4 leukemia; 1.29 µM in the assay with NCI-H522 lung. Further, the GI50 was 0.489 µM in the assay on TK-10 renal and 0.694 µM in the assay with UACC-62 melanoma. The concentration for total growth inhibition (TGI) in the assay on 786-0 renal was 2.53 µM; in the assay with DU-145 prostate, more than 25 µM; in the assay on HOP-62 NSCLC it was 7.17 µM; in the assay with MCF7 breast, 15.7 µM; in the assay on MOLT-4 leukemia, 19.8 µM; in the assay with NCI-H522 lung it was more than 25 µM. In addition, the TGI in the assay with TK-10 renal was 1.32 µM; in the assay with UACC-62 melanoma, 1.67 µM.
Regarding `COC(=O)/C=C1\SC(=Nc2ccc(C(F)(F)F)cc2)N(CCc2c[nH]c3ccccc23)C1=O`, the GI50 is 1.56 µM with 786-0 renal; 1.87 µM in the assay on DU-145 prostate; 1.86 µM in the assay on HCC-2998 colon; 1.58 µM with HOP-92 NSCLC; 1.16 µM in the assay with MCF7 breast; 1.22 µM in the assay with MOLT-4 leukemia. Besides, the GI50 in the assay with NCI-H522 lung is 1.71 µM; in the assay on TK-10 renal, 2.06 µM; with UACC-62 melanoma, 1.62 µM. The total growth inhibition concentration (TGI) in the assay with 786-0 renal worked out at 2.95 µM; in the assay with DU-145 prostate, 4.21 µM; in the assay with HCC-2998 colon, 3.43 µM; with HOP-92 NSCLC it was 3.24 µM; in the assay with MCF7 breast, 4.53 µM; with MOLT-4 leukemia, 5.51 µM. In addition, the figures for the TGI in the assay on NCI-H522 lung, in the assay on TK-10 renal and in the assay on UACC-62 melanoma were 3.91 µM, 3.94 µM and 3.47 µM, respectively.
As to `O=C(O)C1CCCN1Cc1c[nH]c2ccccc12` (stereo not drawn), the total growth inhibition concentration (TGI) with 786-0 renal, with DU-145 prostate, in the assay on HOP-62 NSCLC, in the assay on HOP-92 NSCLC, in the assay with MCF7 breast and with MOLT-4 leukemia was more than 100 µM each time. In addition, the TGI in the assay with NCI-H522 lung, in the assay with TK-10 renal and in the assay on UACC-62 melanoma was more than 100 µM each time.
Consider `CCOC(=O)c1sc2ncn(Cc3cccc(Cl)c3)c(=O)c2c1C`, for which the GI50 in the assay with 786-0 renal is 13.1 µM; in the assay on DU-145 prostate, 17.7 µM; in the assay with HOP-62 NSCLC it was 12 µM; in the assay on HOP-92 NSCLC, 12.2 µM; in the assay on MCF7 breast, 15.8 µM; in the assay on MOLT-4 leukemia it was 13.2 µM. Besides, the GI50 with NCI-H522 lung is 10.9 µM; in the assay on UACC-62 melanoma, 13.4 µM. Also, the TGI in the assay on 786-0 renal stood at 25.7 µM; with DU-145 prostate, 31.5 µM; with HOP-62 NSCLC it was 24.4 µM; with HOP-92 NSCLC, 24.5 µM; in the assay with MCF7 breast, 29.2 µM; in the assay with MOLT-4 leukemia, 25.9 µM. Also, the values for the TGI in the assay on NCI-H522 lung and in the assay on UACC-62 melanoma were 23.3 µM and 26.8 µM, respectively.
For `CC1=C(C(=O)Nc2ccc(F)c(Cl)c2)C(c2cccc(O)c2)NC(=S)N1` (stereo not drawn), the GI50 in the assay on 786-0 renal was 19.1 µM; in the assay with DU-145 prostate, more than 50 µM; in the assay with HOP-62 NSCLC it was more than 50 µM; in the assay on HOP-92 NSCLC, more than 50 µM; in the assay with MCF7 breast, 17.5 µM; in the assay on NCI-H522 lung it was 12.4 µM. Besides, the GI50 with TK-10 renal was more than 50 µM; in the assay on UACC-62 melanoma, 11.9 µM. Further, the total growth inhibition concentration (TGI) in the assay with 786-0 renal, with DU-145 prostate, in the assay with HOP-62 NSCLC, in the assay with HOP-92 NSCLC, in the assay with MCF7 breast and with NCI-H522 lung was more than 50 µM in each case. In addition, the TGI was more than 50 µM in the assay with TK-10 renal and 36.6 µM in the assay with UACC-62 melanoma.
